Key:
Assay in all cases: relative viability (nuclei count vs DMSO), 5 days (fraction); higher = more cells survive
[1] = system: 201T
Method in brief: (§1)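 Lung cancer cell lines were pin-tool dosed in 1536-well plates on the day after seeding, with either a lone drug or a fixed anchor-drug dose plus five library-drug doses (not always all listed) in √10 steps. Nuclei were counted on 4× images after 5 days. Relative viability is the ratio of treated-well to vehicle-well nuclei counts, with each value a median of duplicate plates.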

[2] = system: A-427
Method in brief: as §1

[3] = system: COR-L 105
Method in brief: as §1

[4] = system: COR-L23
Method in brief: as §1

[5] = system: EKVX
Method in brief: as §1

[6] = system: HARA
Method in brief: as §1

[7] = system: HCC-15
Method in brief: as §1

[8] = system: HCC-44
Method in brief: as §1

[9] = system: HCC-827
Method in brief: as §1

[10] = system: LCLC-103H
Method in brief: as §1

[11] = system: LK-2
Method in brief: as §1

[12] = system: NCI-H1437; conditions: first compound 0.04 µM
Method in brief: as §1

`COc1cc(N2CCC(C(N)=O)CC2)ccc1Nc1nc(N)c(Cl)c(Nc2ccccc2S(=O)(=O)C(C)C)n1` [HG-5-88-01] + C[C@]1(O)C[C@@H](c2nc(-c3ccc4ccc(-c5ccccc5)nc4c3)c3c(N)nccn32)C1 [Linsitinib] (partner 1 µM) gave a relative viability ([1]; first compound 0.04 µM) of 1.02, a relative viability ([1]; first compound 0.1265 µM) of 1.04 and a relative viability ([1]; first compound 0.4 µM) of 1.04. The relative viability ([1]; first compound 1.265 µM) was 0.945, the relative viability ([1]; first compound 4 µM) was 1.19 and the relative viability ([2]; first compound 0.04 µM) was 1.07. The relative viability ([2]; first compound 0.1265 µM) was 1.11, the relative viability ([2]; first compound 0.4 µM) was 1.15 and the relative viability ([2]; first compound 1.265 µM) was 1.14. It also gave a relative viability ([2]; first compound 4 µM) of 1.09, a relative viability ([3]; first compound 0.04 µM) of 0.921 and a relative viability ([3]; first compound 0.1265 µM) of 0.966. For the same molecule, the relative viability ([3]; first compound 0.4 µM) was 1.04, the relative viability ([3]; first compound 1.265 µM) was 0.961 and the relative viability ([3]; first compound 4 µM) was 0.751. For the same molecule, the relative viability ([4]; first compound 0.04 µM) was 0.885, the relative viability ([4]; first compound 0.1265 µM) was 0.888 and the relative viability ([4]; first compound 0.4 µM) was 0.872. It also gave a relative viability ([4]; first compound 1.265 µM) of 0.738, a relative viability ([4]; first compound 4 µM) of 0.757 and a relative viability ([5]; first compound 0.04 µM) of 0.972. For the same molecule, the relative viability ([5]; first compound 0.1265 µM) was 1.11, the relative viability ([5]; first compound 0.4 µM) was 0.889 and the relative viability ([5]; first compound 4 µM) was 1.03. For the same molecule, the relative viability ([6]; first compound 0.04 µM) was 0.946, the relative viability ([6]; first compound 0.1265 µM) was 0.916 and the relative viability ([6]; first compound 0.4 µM) was 0.909. The relative viability ([6]; first compound 1.265 µM) was 1, the relative viability ([6]; first compound 4 µM) was 0.92 and the relative viability ([7]; first compound 0.04 µM) was 0.862. It also gave a relative viability ([7]; first compound 0.1265 µM) of 0.837, a relative viability ([7]; first compound 0.4 µM) of 0.92 and a relative viability ([7]; first compound 1.265 µM) of 0.835. The relative viability ([7]; first compound 4 µM) was 0.763, the relative viability ([8]; first compound 0.04 µM) was 0.806 and the relative viability ([8]; first compound 0.1265 µM) was 0.672. It also gave a relative viability ([8]; first compound 0.4 µM) of 0.56, a relative viability ([8]; first compound 1.265 µM) of 0.648 and a relative viability ([8]; first compound 4 µM) of 0.751. It also gave a relative viability ([9]; first compound 0.04 µM) of 0.953, a relative viability ([9]; first compound 0.1265 µM) of 1.04 and a relative viability ([9]; first compound 0.4 µM) of 0.934. It also gave a relative viability ([9]; first compound 1.265 µM) of 0.955, a relative viability ([9]; first compound 4 µM) of 0.69 and a relative viability ([10]; first compound 0.04 µM) of 0.986. The relative viability ([10]; first compound 0.1265 µM) was 1.18, the relative viability ([10]; first compound 0.4 µM) was 1.03 and the relative viability ([10]; first compound 1.265 µM) was 1.03. The relative viability ([10]; first compound 4 µM) was 1.21, the relative viability ([11]; first compound 0.04 µM) was 0.591 and the relative viability ([11]; first compound 0.1265 µM) was 0.519. For the same molecule, the relative viability ([11]; first compound 0.4 µM) was 0.634, the relative viability ([11]; first compound 4 µM) was 0.768 and the relative viability [12] was 1.04.

— the supplement of paper PMC10307832
